{"source": "patent US10975126B1", "about": "(priority 2020, dated 2021)", "test_system": "MERS-CoV", "type": "cell-based, MERS-CoV (CoV/KOR/KNIH/002_05_2015) in Vero cells", "note": "No end group written: not given here.", "data": [{"sequence": "SLTQINWTLLDLTYEMESLQQVVKALNEYYIDLKEL [Peptide 5]", "values": [{"measurement": "inhibition of MERS-CoV / decrease in plaque formation (in words)", "value": "strong inhibition"}]}]}
